Measured values from PubChem BioAssay (NCI).
Several values for one entry are separate records, joined by “and”; a condition that tells them apart may be missing. Equal values may be shown once.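 Test compounds were applied to cells in 96-well plates for 48 hours at 5 doses. GI50 marks 50% less growth. TGI: total growth inhibition.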

How the values were obtained:
Assay in all cases: growth of human tumour cells (NCI), 48 h
PC-3 prostate = test system: PC-3 prostate
CCRF-CEM leukemia = test system: CCRF-CEM leukemia
UACC-257 melanoma = test system: UACC-257 melanoma
MCF7 breast = test system: MCF7 breast
RPMI-8226 leukemia = test system: RPMI-8226 leukemia
A549 NSCLC = test system: A549 NSCLC
HT29 colon = test system: HT29 colon
HCC-2998 colon = test system: HCC-2998 colon
MDA-MB-231 breast = test system: MDA-MB-231 breast
M14 melanoma = test system: M14 melanoma

| SMILES | GI50 (PC-3 prostate) | TGI (PC-3 prostate) [µM] | GI50 (CCRF-CEM leukemia) [µM] | TGI (CCRF-CEM leukemia) [µM] | GI50 (UACC-257 melanoma) | TGI (UACC-257 melanoma) [µM] | GI50 (MCF7 breast) | TGI (MCF7 breast) [µM] | GI50 (RPMI-8226 leukemia) | TGI (RPMI-8226 leukemia) | GI50 (A549 NSCLC) [µM] | TGI (A549 NSCLC) [µM] | GI50 (HT29 colon) | TGI (HT29 colon) [µM] | GI50 (HCC-2998 colon) | TGI (HCC-2998 colon) [µM] | GI50 (MDA-MB-231 breast) [µM] | TGI (MDA-MB-231 breast) [µM] | GI50 (M14 melanoma) | TGI (M14 melanoma) [µM] |
| --- | --- | --- | --- | --- | --- | --- | --- | --- | --- | --- | --- | --- | --- | --- | --- | --- | --- | --- | --- | --- |
| CCc1cc2c(c(OCC(F)(F)F)c(C(=O)NC3CCN(C(=O)CO)CC3)n2C)c(=O)n1CC(=O)c1ccccc1 | > 73.5 µM | > 100 | 38.5 | > 100 | > 82.2 µM | > 100 | 44 µM | > 100 | 27.7 µM | > 100 µM | 92.2 | > 100 | 65 µM | > 100 | > 78 µM | > 100 | 54.6 | > 100 | > 100 µM | > 100 |
| COc1ccc(C2c3ccc4ccccc4c3Oc3ncn(CCCn4ccnc4)c(=N)c32)cc1OC (stereo not given) | 3.23 µM | 12.9 | 2.52 | 6.9 | 3.07 µM | 11.4 | 3.11 µM | 12.3 | 2.81 µM | 8.58 µM | 3.75 | 13.8 | 2.2 µM | 5.6 | 3.45 µM | 11.2 | 2.44 | 8.01 | 1.98 µM | 3.83 |
| CCn1nc(C2CCN(C(=O)CCO)CC2)nc1-c1cnc(N)c(-c2nnc(C(C)(C)C)o2)n1 | 3.2 µM | > 100 | 18.2 | > 100 |  |  | 0.375 µM | > 100 | 28 µM | > 76.7 µM | 2.26 | > 100 | 0.63 µM | 22 | 10.7 µM | > 100 | 15.1 | 68.2 | 27.7 µM | > 100 |
| Cc1cccc2c(=O)c3c(sc12)c(NCCCNCCO)nc1ccccc13 | 1.29 µM | 2.75 | 1.57 | 3.31 | 1.86 µM | 3.54 | 1.33 µM | 2.87 | 1.81 µM | 3.81 µM | 1.06 | 2.64 | 1.57 µM | 3.2 | 1.58 µM | 3.06 | 1.6 | 3.13 | 1.81 µM | 3.56 |
| Cc1ccc(/C(=N/NS(=O)(=O)c2cc(C)c(Cl)cc2Cl)Sc2cc(Cl)c(C)cc2S(N)(=O)=O)cc1 | > 100 µM | > 100 | > 100 | > 100 | > 100 µM | > 100 | > 100 µM | > 100 | 51.3 µM | > 100 µM | > 100 | > 100 | > 100 µM | > 100 |  |  | > 100 | > 100 | > 100 µM | > 100 |
| O=Cc1ccc(-c2ccc(-c3nc4ccccc4s3)cc2)o1 | 45.2 µM | > 100 |  |  | > 100 µM | > 100 | 1.53 µM | 56.6 | 20.9 µM | > 100 µM | > 100 | > 100 | > 100 µM | > 100 | > 100 µM | > 100 | 22 | 68.1 | > 100 µM | > 100 |
| CCCCCCCCCCCCCCCCn1cc[n+](C)c1 | 0.183 µM | 0.58 | 0.139 | 0.512 |  |  | 0.367 µM | 1.52 | 0.024 µM | 0.19 µM | 0.326 | 1.6 | 0.291 µM | 1.25 | 0.277 µM | 1.13 | 0.814 | 2.23 | 0.268 µM | 1.3 |
| COc1ccc2c(n1)Sc1nc3ccccc3nc1N2 |  | > 100 |  | > 100 |  | > 100 |  | > 100 |  | > 100 µM |  | > 100 |  | > 100 |  |  |  | 49.7 |  | > 100 |
| CC(=O)OCC1OC(SC2=N/C(=C\c3ccc(Br)s3)C(=O)N2c2ccccc2)C(OC(C)=O)C(OC(C)=O)C1OC(C)=O (stereo not given) |  | > 100 |  |  | > 100 µM and 42.5 µM | > 100 |  | > 100 | 37.7 µM and 7.96 µM | > 100 µM and 61 µM |  |  | > 100 µM and 28.6 µM | > 100 |  | > 100 |  | > 100 |  |  |
| COc1ccc(O)c(/C=N\Nc2ccccc2)c1 |  | > 100 |  |  |  | > 100 |  | > 100 |  | 5.94 µM |  | 48.4 |  | 29.9 |  | 5.33 |  | > 100 |  | 73.2 |
| CN1CCc2ccccc2C1Cc1ccccc1NC(=O)c1sc2ccccc2c1Cl (stereo not given) |  | > 100 |  | > 100 |  | > 100 |  | > 100 |  | > 100 µM |  | > 100 |  |  |  | > 100 |  | > 100 |  | > 100 |
| O=C(COc1ccccc1)NNc1ccccc1 | 45.3 µM and 44.1 µM | > 300 | 8.18 |  |  |  | 47.8 µM and 38.8 µM | > 300 | 68.3 µM and 274 µM | > 300 µM | 60.4 |  | 264 µM | > 300 | 27.2 µM and 26.6 µM | > 300 | 73.2 | > 300 | 15.2 µM and 13.9 µM | 171 |
| COc1cc2c3c(n(CCCN=[N+]=[N-])c(=O)c2cc1OC)-c1ccccc1C3=O | > 100 µM | > 100 | 3.37 | > 100 |  |  | 5.35 µM | > 100 | 6.19 µM | > 100 µM | 26.2 | > 100 | > 100 µM | > 100 | 94.2 µM | > 100 | > 100 | > 100 | 1.82 µM | 13.9 |
| CCOc1ccccc1/C=N\N=C(N/N=C/c1ccccc1OCC)N/N=C/c1ccccc1OCC | 2.06 µM | > 100 | 3.21 | > 100 | 3.12 µM | > 100 | 0.715 µM | > 100 | 1.73 µM | > 100 µM | 2.65 | > 100 | 2.23 µM | > 100 | 0.826 µM | > 100 | 1.73 | 7.52 |  |  |
| COC(=O)[C@H](Cc1cn(C)cn1)NC(=O)[C@H](CC(C)C)NC(=O)Nc1cc(C(F)(F)F)cc(C(F)(F)F)c1 | 4.64 µM | > 10 |  |  |  |  | 2.52 µM | 7.76 | 4.98 µM | > 10 µM |  |  | 8.05 µM | > 10 | 5.62 µM | > 10 | 4.64 | > 10 | > 10 µM | > 10 |
